Laboratory results: patent US9302999B2, “Substituted triazoles as herbicides” (E. I. DU PONT DE NEMOURS AND COMPANY, priority 2012, dated 2016)

Legend:
Type in all cases: in vivo
[1] = system: morningglory (Ipomoea coccinea); assay: Test F pre-/postemergence: morningglory; details: Preemergence
Excerpt: Seeds of plant species selected from corn (Zea mays), soybean (Glycine max), velvetleaf (Abutilon theophrasti), lambsquarters (Chenopodium album), poinsettia, wild (wild poinsettia, Euphorbia heterophylla), pigweed, palmer (palmer pigweed, Amaranthus palmeri), waterhemp (common waterhemp, Amaranthus rudis), surinam grass (Brachiaria decumbens), crabgrass, Brazil (Brazilian crabgrass, Digitaria horizontalis), panicum, fall (fall panicum Panicum dichotomiflorum), crabgrass, large (large crabgrass, Digitaria sanguinalis), foxtail, giant (giant foxtail, Setaria faberii), foxtail, green (green foxtail Setaria viridis), goosegrass (Eleusine indica), ragweed (common ragweed, Ambrosia elatior), barnyardgrass (Echinochloa crus-galli), sandbur (southern sandbur, Cenchrus echinatus), arrowleaf sida (Sida rhombifolia), ryegrass, Italian (Italian ryegrass, Lolium multiflorum), dayflower, VA (Virginia (VA) dayflower, Commelina virginica), field bindweed (Convolvulus arvensis), cocklebur (common cocklebur, Xanthium strumarium), morningglory (Ipomoea coccinea), nightshade (eastern black nightshade, Solanum ptycanthum), kochia (Kochia scoparia), nutsedge, yellow (yellow nutsedge, Cyperus esculentus), johnsongrass (Sorghum halepense), smartweed (ladysthumb smartweed, Polygonum persicaria), and beggarticks (hairy beggarticks, Bidens pilosa), were planted into a silt loam soil and treated preemergence with test chemicals formulated in a non-phytotoxic solvent mixture which included a surfactant. At the same time, plants selected from these crop and weed species and also pigweed (Amaranthus retroflexus), waterhemp_RES1 (ALS/Triazine resistant common waterhemp, Amaranthus rudis) and waterhemp_RES2 (ALS/HPPD resistant common waterhemp, Amaranthus rudis) were planted in pots containing a planting medium comprising spaghnum peat moss, vermiculite, wetting agent and starter nutrients treated with postemergence applications of some of the test chemicals formulated in the same manner. Plants ranged in height from 2 to 18 cm for postemergence treatments (1- to 4-leaf stage).
Treated plants and controls were maintained in a greenhouse for 14 to 21 days, after which time all species were compared to controls and visually evaluated. Plant response ratings, summarized in Table E, are based on a scale of 0 to 100 where 0 is no effect and 100 is complete control. A dash (-) response means no test result.

[2] = system: field poppy (Papaver rhoeas); assay: Test D pre-/postemergence: field poppy
How it was run: (§1)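 Visual 0–100 rating versus untreated controls (0 no effect, 100 complete control), taken 14 to 21 days after treatment in a controlled growth environment. Preemergence: silt loam soil. Postemergence: peat moss/vermiculite medium, plants 2 to 18 cm, 1- to 4-leaf stage. Solvent mixture with surfactant.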

[3] = system: deadnettle (henbit deadnettle, Lamium amplexicaule); assay: Test D pre-/postemergence: deadnettle
How it was run: as §1

[4] = system: ryegrass, Italian (Italian ryegrass, Lolium multiflorum); assay: Test D pre-/postemergence: ryegrass, Italian
How it was run: as §1

kochia (Kochia scoparia) = assay: Test D pre-/postemergence: kochia
How it was run: as §1

[5] = system: buckwheat, wild (wild buckwheat, Polygonum convolvulus); assay: Test D pre-/postemergence: buckwheat, wild
How it was run: as §1

[6] = 16 g ai/ha, scale 0 to 100, 0 no effect, 100 complete control
[7] = 31 g ai/ha, scale 0 to 100, 0 no effect, 100 complete control
[8] = Postemergence, 31 g ai/ha, scale 0 to 100 (0 no effect, 100 complete control)
[9] = Postemergence, 62 g ai/ha, scale 0 to 100 (0 no effect, 100 complete control)
[10] = Postemergence, 125 g ai/ha, scale 0 to 100, 0 no effect, 100 complete control
[11] = Postemergence, 16 g ai/ha, scale 0 to 100
[12] = Preemergence, 16 g ai/ha, scale 0 to 100, 0 no effect, 100 complete control
[13] = Preemergence, 31 g ai/ha, scale 0 to 100, 0 no effect, 100 complete control
[14] = Preemergence, 62 g ai/ha, scale 0 to 100
[15] = Preemergence, 125 g ai/ha, scale 0 to 100

COc1nn(-c2cccc(F)c2)nc1Cc1ccnc(C(F)(F)F)c1 [Compound 139]
Plant response rating, Morningglory [1, 6]: 0 | Plant response rating, Morningglory [1, 7]: 0 | Plant response rating, Morningglory ([1]; 125 g ai/ha, scale 0 to 100): 5 | Plant response rating, Morningglory ([1]; 250 g ai/ha, scale 0 to 100): 20

Cc1nn(-c2ccc(F)cc2F)nc1Oc1ccnc(C(F)(F)F)c1 [Compound 146]
Plant response rating, Morningglory [1, 6]: 0 | Plant response rating, Morningglory [1, 7]: 0 | Plant response rating, Morningglory ([1]; 125 g ai/ha, scale 0 to 100): 0 | Plant response rating, Morningglory ([1]; 250 g ai/ha, scale 0 to 100): 25

Cc1nn(-c2ccc(C(F)(F)F)c(F)c2)nc1Oc1ccnc(C(F)(F)F)c1 [Compound 148]
Plant response rating: Field Poppy [2, 8]: 100 | Plant response rating: Field Poppy [2, 9]: 95 | Plant response rating: Field Poppy [2, 10]: 100 | Plant response rating, Field Poppy [2, 11]: 90 | Plant response rating, Field Poppy [2, 12]: 10 | Plant response rating, Field Poppy [2, 13]: 70 | Plant response rating, Field Poppy [2, 14]: 100 | Plant response rating, Field Poppy [2, 15]: 95 | Plant response rating: Deadnettle [3, 8]: 65 | Plant response rating: Deadnettle [3, 9]: 100 | Plant response rating: Deadnettle [3, 10]: 100 | Plant response rating, Deadnettle [3, 11]: 70 | Plant response rating, Deadnettle [3, 12]: 10 | Plant response rating, Deadnettle [3, 13]: 45 | Plant response rating, Deadnettle [3, 14]: 100 | Plant response rating, Deadnettle [3, 15]: 100 | Plant response rating: Ryegrass, Italian [4, 8]: 15 | Plant response rating: Ryegrass, Italian [4, 9]: 20 | Plant response rating: Ryegrass, Italian [4, 10]: 20 | Plant response rating, Ryegrass, Italian [4, 11]: 5 | Plant response rating, Ryegrass, Italian [4, 12]: 0 | Plant response rating, Ryegrass, Italian [4, 13]: 5 | Plant response rating, Ryegrass, Italian [4, 14]: 5 | Plant response rating, Ryegrass, Italian [4, 15]: 35 | Plant response rating: Kochia (kochia (Kochia scoparia); [8]): 85 | Plant response rating: Kochia (kochia (Kochia scoparia); [9]): 85 | Plant response rating: Kochia (kochia (Kochia scoparia); [10]): 85 | Plant response rating, Kochia (kochia (Kochia scoparia); [11]): 75 | Plant response rating, Kochia (kochia (Kochia scoparia); [12]): 10 | Plant response rating, Kochia (kochia (Kochia scoparia); [13]): 20 | Plant response rating, Kochia (kochia (Kochia scoparia); [14]): 10 | Plant response rating, Kochia (kochia (Kochia scoparia); [15]): 75 | Plant response rating: Buckwheat, Wild [5, 8]: 60 | Plant response rating: Buckwheat, Wild [5, 9]: 75 | Plant response rating: Buckwheat, Wild [5, 10]: 70 | Plant response rating, Buckwheat, Wild [5, 11]: 60 | Plant response rating, Buckwheat, Wild [5, 12]: 20 | Plant response rating, Buckwheat, Wild [5, 13]: 30 | Plant response rating, Buckwheat, Wild [5, 14]: 65 | Plant response rating, Buckwheat, Wild [5, 15]: 50 | Plant response rating, Morningglory [1, 6]: 0 | Plant response rating, Morningglory [1, 7]: 30 | Plant response rating, Morningglory ([1]; 125 g ai/ha, scale 0 to 100): 50 | Plant response rating, Morningglory ([1]; 250 g ai/ha, scale 0 to 100): 70

CCc1nn(-c2ccc(C(F)(F)F)cc2)nc1Oc1ccnc(C(F)(F)F)c1 [Compound 169]
Plant response rating, Morningglory [1, 6]: 0 | Plant response rating, Morningglory [1, 7]: 0 | Plant response rating, Morningglory ([1]; 125 g ai/ha, scale 0 to 100): 40 | Plant response rating, Morningglory ([1]; 250 g ai/ha, scale 0 to 100): 40

CCc1nn(-c2ccc(F)c(F)c2)nc1Oc1ccnc(C(F)(F)F)c1 [Compound 171]
Plant response rating, Morningglory [1, 6]: 0 | Plant response rating, Morningglory [1, 7]: 0 | Plant response rating, Morningglory ([1]; 125 g ai/ha, scale 0 to 100): 35 | Plant response rating, Morningglory ([1]; 250 g ai/ha, scale 0 to 100): 65

CCCc1nn(-c2ccc(F)c(F)c2)nc1Oc1ccnc(C(F)(F)F)c1 [Compound 172]
Plant response rating, Morningglory [1, 7]: 0 | Plant response rating, Morningglory ([1]; 125 g ai/ha, scale 0 to 100): 5 | Plant response rating, Morningglory ([1]; 250 g ai/ha, scale 0 to 100): 5

CCOc1nn(-c2ccc(F)cc2)nc1Cc1ccnc(C(F)(F)F)c1 [Compound 196, 4-[[5-ethoxy-2-(4-fluorophenyl)-2H-1,2,3-triazol-4-yl]methyl]-2-(trifluoromethyl)pyridine]
Plant response rating: Field Poppy [2, 8]: 100 | Plant response rating: Field Poppy [2, 9]: 100 | Plant response rating: Field Poppy [2, 10]: 100 | Plant response rating, Field Poppy [2, 11]: 100 | Plant response rating, Field Poppy [2, 12]: 95 | Plant response rating, Field Poppy [2, 13]: 90 | Plant response rating, Field Poppy [2, 14]: 100 | Plant response rating, Field Poppy [2, 15]: 100 | Plant response rating: Deadnettle [3, 8]: 100 | Plant response rating: Deadnettle [3, 9]: 100 | Plant response rating: Deadnettle [3, 10]: 100 | Plant response rating, Deadnettle [3, 11]: 85 | Plant response rating, Deadnettle [3, 12]: 10 | Plant response rating, Deadnettle [3, 13]: 40 | Plant response rating, Deadnettle [3, 14]: 100 | Plant response rating, Deadnettle [3, 15]: 100 | Plant response rating: Ryegrass, Italian [4, 8]: 15 | Plant response rating: Ryegrass, Italian [4, 9]: 30 | Plant response rating: Ryegrass, Italian [4, 10]: 75 | Plant response rating, Ryegrass, Italian [4, 11]: 5 | Plant response rating, Ryegrass, Italian [4, 12]: 5 | Plant response rating, Ryegrass, Italian [4, 13]: 10 | Plant response rating, Ryegrass, Italian [4, 14]: 60 | Plant response rating, Ryegrass, Italian [4, 15]: 100 | Plant response rating: Kochia (kochia (Kochia scoparia); [8]): 85 | Plant response rating: Kochia (kochia (Kochia scoparia); [9]): 90 | Plant response rating: Kochia (kochia (Kochia scoparia); [10]): 90 | Plant response rating, Kochia (kochia (Kochia scoparia); [11]): 70 | Plant response rating, Kochia (kochia (Kochia scoparia); [12]): 35 | Plant response rating, Kochia (kochia (Kochia scoparia); [13]): 70 | Plant response rating, Kochia (kochia (Kochia scoparia); [14]): 100 | Plant response rating, Kochia (kochia (Kochia scoparia); [15]): 100 | Plant response rating: Buckwheat, Wild [5, 8]: 70 | Plant response rating: Buckwheat, Wild [5, 9]: 90 | Plant response rating: Buckwheat, Wild [5, 10]: 95 | Plant response rating, Buckwheat, Wild [5, 11]: 50 | Plant response rating, Buckwheat, Wild [5, 12]: 60 | Plant response rating, Buckwheat, Wild [5, 13]: 45 | Plant response rating, Buckwheat, Wild [5, 14]: 70 | Plant response rating, Buckwheat, Wild [5, 15]: 95 | Plant response rating, Morningglory ([1]; 8 g ai/ha, scale 0 to 100, 0 no effect, 100 complete control): 0 | Plant response rating, Morningglory [1, 6]: 30 | Plant response rating, Morningglory [1, 7]: 30 | Plant response rating, Morningglory ([1]; 125 g ai/ha, scale 0 to 100): 70
